From the supplement of paper PMC11451515

Columns and labels:
Settings in all cases: 48 h
NOMO1 [1] = assay: AUC of viability dose-response curve (% viability x log10 dose units); higher = less sensitive
Summary of the method: (§1)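 Leukemia cells adapted to each medium were seeded in 1536-well plates (500 or 1000 cells/well) and given library compounds in DMSO for 48 h at 37°C. The 11 threefold doses spanned 47 μM to 0.79 nM, and CellTiter-Glo One luminescence was normalised per plate to DMSO and cell-free wells before four-parameter log-logistic fitting on log10 dose. Area under the curve was integrated with the trapezoidal rule, scaling curves above full viability and removing curves that failed quality control.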

P12-Ichikawa [2] = assay: as above
Summary of the method: as §1

SEM cells [3] = assay: as above
Summary of the method: as §1

P12-Ichikawa [4] = assay: cell viability relative to DMSO control; higher = less cytotoxic
Summary of the method: (§2)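 Viability, reported as a per-plate percentage of DMSO wells with cell-free wells as background, came from CellTiter-Glo One luminescence. Reading took place after 48 h at 37°C. Before that, NOMO1 or SEM (500 cells/well) or P12-Ichikawa (1000 cells/well) leukemia cells, adapted for at least four passages in each medium, were seeded in 1536-well plates (5 μl) and pin-dosed with library compounds in DMSO, 47 μM to 0.79 nM over 11 threefold points.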

NOMO1 [5] = assay: as above
Summary of the method: as §2

SEM cells [6] = assay: as above
Summary of the method: as §2

O=C(Nc1nc2ccccc2n1CCN1CCOCC1)c1cccc([N+](=O)[O-])c1
AUC of viability dose-response curve
Settings | NOMO1 [1] | P12-Ichikawa [2] | SEM cells [3]
HPLM + 10% dialyzed FBS | 447 | 462 | 474
RPMI 5 mM glucose + 10% FBS | 465 | 445 | 465
RPMI 5 mM glucose + 10% dialyzed FBS | 470 | 449 | 444

Cc1ccc(O)c(C(CCN(C(C)C)C(C)C)c2ccccc2)c1.Cl (stereo unspecified)
P12-Ichikawa [4], HPLM + 10% dialyzed FBS
Settings | cell viability [%]
0.000781 µM | 121
0.00234 µM | 122
0.00702 µM | 131
0.0211 µM | 137
0.0632 µM | 140
0.19 µM | 128
0.569 µM | 129
1.71 µM | 134
5.12 µM | 134
15.4 µM | 136
46.1 µM | 127

AUC of viability dose-response curve
Settings | NOMO1 [1] | P12-Ichikawa [2] | SEM cells [3]
HPLM + 10% dialyzed FBS | 410 | 465 | 461
RPMI 5 mM glucose + 10% FBS | 430 | 470 | 477
RPMI 5 mM glucose + 10% dialyzed FBS | 435 | 475 | 463

CCN(CC)CCCCNc1nc2cc(Cl)c(Cl)cc2nc1-c1ccc(-c2cccs2)s1
cell viability [%]
Settings | NOMO1 [5] | P12-Ichikawa [4] | SEM cells [6]
HPLM + 10% dialyzed FBS, 0.000781 µM | 101 | 94.2 | 83.7
HPLM + 10% dialyzed FBS, 0.00234 µM | 124 | 114 | 110
HPLM + 10% dialyzed FBS, 0.00702 µM | 123 | 75.6 | 27.8
HPLM + 10% dialyzed FBS, 0.0211 µM | 128 | 114 | 121
HPLM + 10% dialyzed FBS, 0.0632 µM | 111 | 109 | 110
HPLM + 10% dialyzed FBS, 0.19 µM | 137 | 134 | 102
HPLM + 10% dialyzed FBS, 0.569 µM | 137 | 118 | 115
HPLM + 10% dialyzed FBS, 1.71 µM | 121 | 121 | 114
HPLM + 10% dialyzed FBS, 5.12 µM | 138 | 115 | 107
HPLM + 10% dialyzed FBS, 15.4 µM | 98.4 | 123 | 124
HPLM + 10% dialyzed FBS, 46.1 µM | 3.87 | 59.9 | 8.47
RPMI 5 mM glucose + 10% FBS, 0.000781 µM | 97 | 99.9 | 93.7
RPMI 5 mM glucose + 10% FBS, 0.00234 µM | 103 | 119 | 94.9
RPMI 5 mM glucose + 10% FBS, 0.00702 µM | 111 | 64.8 | 8.03
RPMI 5 mM glucose + 10% FBS, 0.0211 µM | 115 | 123 | 101
RPMI 5 mM glucose + 10% FBS, 0.0632 µM | 123 | 120 | 96.8
RPMI 5 mM glucose + 10% FBS, 0.19 µM | 119 | 125 | 102
RPMI 5 mM glucose + 10% FBS, 0.569 µM | 123 | 134 | 114
RPMI 5 mM glucose + 10% FBS, 1.71 µM | 102 | 125 | 98.9
RPMI 5 mM glucose + 10% FBS, 5.12 µM | 117 | 123 | 107
RPMI 5 mM glucose + 10% FBS, 15.4 µM | 113 | 114 | 93.9
RPMI 5 mM glucose + 10% FBS, 46.1 µM | 5.9 | 5.94 | 5.71
RPMI 5 mM glucose + 10% dialyzed FBS, 0.000781 µM | 98.3 | 107 | 106
RPMI 5 mM glucose + 10% dialyzed FBS, 0.00234 µM | 112 | 116 | 121
RPMI 5 mM glucose + 10% dialyzed FBS, 0.00702 µM | 108 | 78 | 26.4
RPMI 5 mM glucose + 10% dialyzed FBS, 0.0211 µM | 112 | 118 | 130
RPMI 5 mM glucose + 10% dialyzed FBS, 0.0632 µM | 110 | 120 | 118
RPMI 5 mM glucose + 10% dialyzed FBS, 0.19 µM | 119 | 129 | 126
RPMI 5 mM glucose + 10% dialyzed FBS, 0.569 µM | 114 | 123 | 116
RPMI 5 mM glucose + 10% dialyzed FBS, 1.71 µM | 108 | 127 | 116
RPMI 5 mM glucose + 10% dialyzed FBS, 5.12 µM | 112 | 121 | 126
RPMI 5 mM glucose + 10% dialyzed FBS, 15.4 µM | 108 | 108 | 131
RPMI 5 mM glucose + 10% dialyzed FBS, 46.1 µM | 5.42 | 6.07 | 8.47

NOMO1 [1]
Settings | AUC of viability dose-response curve
HPLM + 10% dialyzed FBS | 444
RPMI 5 mM glucose + 10% FBS | 454
RPMI 5 mM glucose + 10% dialyzed FBS | 453

Cc1cc(C[S+](=O)([O-])c2ccccc2)cc(OCc2ccc(CN3CCC[C@@H]3CO)cc2)c1
AUC of viability dose-response curve
Settings | NOMO1 [1] | P12-Ichikawa [2] | SEM cells [3]
HPLM + 10% dialyzed FBS | 298 | 305 | 291
RPMI 5 mM glucose + 10% FBS | 321 | 315 | 268
RPMI 5 mM glucose + 10% dialyzed FBS | 323 | 321 | 285

Cc1c(O)cccc1C(=O)N[C@@H](CSc1ccccc1)[C@H](O)CN1C[C@H]2CCCC[C@H]2C[C@H]1C(=O)NC(C)(C)C
AUC of viability dose-response curve
Settings | NOMO1 [1] | P12-Ichikawa [2] | SEM cells [3]
HPLM + 10% dialyzed FBS | 465 | 447 | 426
RPMI 5 mM glucose + 10% FBS | 459 | 459 | 453
RPMI 5 mM glucose + 10% dialyzed FBS | 455 | 461 | 455

Cc1ccc(CN2CCNCC2)cc1NC(=O)CNc1ccc(F)c(F)c1
AUC of viability dose-response curve
Settings | NOMO1 [1] | P12-Ichikawa [2] | SEM cells [3]
HPLM + 10% dialyzed FBS | 435 | 454 | 447
RPMI 5 mM glucose + 10% FBS | 459 | 457 | 464
RPMI 5 mM glucose + 10% dialyzed FBS | 444 | 445 | 431

COc1cc(C)c(Sc2cnc(NC(=O)c3ccc(CNC(C)C(C)(C)C)cc3)s2)cc1C(=O)N1CCN(C(C)=O)CC1 (stereo unspecified)
Settings | cell viability [%]
NOMO1 [5], RPMI 5 mM glucose + 10% FBS, 0.000781 µM | 116
NOMO1 [5], RPMI 5 mM glucose + 10% FBS, 0.00234 µM | 131
NOMO1 [5], RPMI 5 mM glucose + 10% FBS, 0.00702 µM | 124
NOMO1 [5], RPMI 5 mM glucose + 10% FBS, 0.0211 µM | 128
NOMO1 [5], RPMI 5 mM glucose + 10% FBS, 0.0632 µM | 127
NOMO1 [5], RPMI 5 mM glucose + 10% FBS, 0.19 µM | 124
NOMO1 [5], RPMI 5 mM glucose + 10% FBS, 0.569 µM | 132
NOMO1 [5], RPMI 5 mM glucose + 10% FBS, 1.71 µM | 115
NOMO1 [5], RPMI 5 mM glucose + 10% FBS, 5.12 µM | 114
NOMO1 [5], RPMI 5 mM glucose + 10% FBS, 15.4 µM | 115
NOMO1 [5], RPMI 5 mM glucose + 10% FBS, 46.1 µM | 17
P12-Ichikawa [4], HPLM + 10% dialyzed FBS, 0.000781 µM | 125
P12-Ichikawa [4], HPLM + 10% dialyzed FBS, 0.00234 µM | 129
P12-Ichikawa [4], HPLM + 10% dialyzed FBS, 0.00702 µM | 120
P12-Ichikawa [4], HPLM + 10% dialyzed FBS, 0.0211 µM | 120
P12-Ichikawa [4], HPLM + 10% dialyzed FBS, 0.0632 µM | 122
P12-Ichikawa [4], HPLM + 10% dialyzed FBS, 0.19 µM | 127
P12-Ichikawa [4], HPLM + 10% dialyzed FBS, 0.569 µM | 115
P12-Ichikawa [4], HPLM + 10% dialyzed FBS, 1.71 µM | 110
P12-Ichikawa [4], HPLM + 10% dialyzed FBS, 5.12 µM | 109
P12-Ichikawa [4], HPLM + 10% dialyzed FBS, 15.4 µM | 101
P12-Ichikawa [4], HPLM + 10% dialyzed FBS, 46.1 µM | 7.33

AUC of viability dose-response curve
Settings | NOMO1 [1] | P12-Ichikawa [2] | SEM cells [3]
HPLM + 10% dialyzed FBS | 442 | 447 | 365
RPMI 5 mM glucose + 10% FBS | 453 | 444 | 358
RPMI 5 mM glucose + 10% dialyzed FBS | 437 | 439 | 350

CC(=O)Nc1nc(C)c(-c2ccc(Cl)c([S+](=O)([O-])NCCO)c2)s1
AUC of viability dose-response curve
Settings | NOMO1 [1] | P12-Ichikawa [2] | SEM cells [3]
HPLM + 10% dialyzed FBS | 364 | 374 | 366
RPMI 5 mM glucose + 10% FBS | 385 | 326 | 345
RPMI 5 mM glucose + 10% dialyzed FBS | 362 | 340 | 344

CCn1c(-c2nonc2N)nc2cncc(CNC3CCNCC3)c21
cell viability [%]
Settings | HPLM + 10% dialyzed FBS | RPMI 5 mM glucose + 10% FBS | RPMI 5 mM glucose + 10% dialyzed FBS
P12-Ichikawa [4], 0.000781 µM | 122 | – | –
P12-Ichikawa [4], 0.00234 µM | 123 | – | –
P12-Ichikawa [4], 0.00702 µM | 123 | – | –
P12-Ichikawa [4], 0.0211 µM | 123 | – | –
P12-Ichikawa [4], 0.0632 µM | 130 | – | –
P12-Ichikawa [4], 0.19 µM | 129 | – | –
P12-Ichikawa [4], 0.569 µM | 117 | – | –
P12-Ichikawa [4], 1.71 µM | 104 | – | –
P12-Ichikawa [4], 5.12 µM | 88.6 | – | –
P12-Ichikawa [4], 15.4 µM | 10.1 | – | –
P12-Ichikawa [4], 46.1 µM | 13.7 | – | –
SEM cells [6], 0.000781 µM | 119 | 101 | 123
SEM cells [6], 0.00234 µM | 121 | 125 | 126
SEM cells [6], 0.00702 µM | 126 | 124 | 113
SEM cells [6], 0.0211 µM | 134 | 143 | 131
SEM cells [6], 0.0632 µM | 137 | 144 | 118
SEM cells [6], 0.19 µM | 131 | 152 | 115
SEM cells [6], 0.569 µM | 129 | 120 | 137
SEM cells [6], 1.71 µM | 109 | 61.5 | 110
SEM cells [6], 5.12 µM | 96.1 | 58.3 | 100
SEM cells [6], 15.4 µM | 60.7 | 18.9 | 45.2
SEM cells [6], 46.1 µM | 30.8 | 15.8 | 22.7

AUC of viability dose-response curve
Settings | NOMO1 [1] | P12-Ichikawa [2] | SEM cells [3]
HPLM + 10% dialyzed FBS | 419 | 399 | 414
RPMI 5 mM glucose + 10% FBS | 437 | 424 | 357
RPMI 5 mM glucose + 10% dialyzed FBS | 443 | 411 | 417

C[C@H]1[C@H](OC(=O)CCC(=O)O)O[C@@H]2O[C@@]3(C)CC[C@H]4[C@H](C)CC[C@@H]1[C@@]24OO3
AUC of viability dose-response curve
Settings | NOMO1 [1] | P12-Ichikawa [2] | SEM cells [3]
HPLM + 10% dialyzed FBS | 350 | 372 | 393
RPMI 5 mM glucose + 10% FBS | 342 | 360 | 371
RPMI 5 mM glucose + 10% dialyzed FBS | 335 | 351 | 378

C[N]1C2=C(SC(=C2)[S+](C)[O-])C\3=C1C(=O)N(CC4=CC(=CC=C4)N)\N=C3 (stereo unspecified)
AUC of viability dose-response curve
Settings | HPLM + 10% dialyzed FBS | RPMI 5 mM glucose + 10% FBS | RPMI 5 mM glucose + 10% dialyzed FBS
P12-Ichikawa [2] | 414 | 404 | 392
SEM cells [3] | 426 | 426 | 403
